From ChEMBL document CHEMBL4627344, “Synthesis, biological evaluation and virtual screening of some acridone derivatives as potential anticancer agents” (2020)

Columns and labels:
Assay type in all cases: functional
HL-60(TB) [1] = assay: Antiproliferative activity against human HL-60(TB) cells assessed as inhibition of cell growth at 10 uM measured after 48 hrs by SRB assay relative to control; conditions: HL-60, 48 h, read-out: GI
MOLT-4 = assay: Antiproliferative activity against human MOLT4 cells assessed as inhibition of cell growth at 10 uM measured after 48 hrs by SRB assay relative to control; conditions: MOLT-4, 48 h, read-out: GI
NCI-H460 [2] = assay: Antiproliferative activity against human NCI-H460 cells assessed as inhibition of cell growth at 10 uM measured after 48 hrs by SRB assay relative to control; conditions: NCI-H460, 48 h, read-out: GI
COLO 205 = assay: Antiproliferative activity against human COLO205 cells assessed as inhibition of cell growth at 10 uM measured after 48 hrs by SRB assay relative to control; conditions: COLO 205, 48 h, read-out: GI
HT-29 = assay: Antiproliferative activity against human HT-29 cells assessed as inhibition of cell growth at 10 uM measured after 48 hrs by SRB assay relative to control; conditions: HT-29, 48 h, read-out: GI
KM12 = assay: Antiproliferative activity against human KM12 cells assessed as inhibition of cell growth at 10 uM measured after 48 hrs by SRB assay relative to control; conditions: KM12, 48 h, read-out: GI
SK-MEL-5 = assay: Antiproliferative activity against human SK-MEL-5 cells assessed as inhibition of cell growth at 10 uM measured after 48 hrs by SRB assay relative to control; conditions: SK-MEL-5, 48 h, read-out: GI
UACC-62 [3] = assay: Antiproliferative activity against human UACC62 cells assessed as inhibition of cell growth at 10 uM measured after 48 hrs by SRB assay relative to control; conditions: UACC-62, 48 h, read-out: GI
OVCAR-3 = assay: Antiproliferative activity against human OVCAR3 cells assessed as inhibition of cell growth at 10 uM measured after 48 hrs by SRB assay relative to control; conditions: OVCAR-3, 48 h, read-out: GI
NCI/ADR-RES [4] = assay: Antiproliferative activity against human NCI-ADR-RES cells assessed as inhibition of cell growth at 10 uM measured after 48 hrs by SRB assay relative to control; conditions: read-out: GI
A498 [5] = assay: Antiproliferative activity against human A498 cells assessed as inhibition of cell growth at 10 uM measured after 48 hrs by SRB assay relative to control; conditions: A498, 48 h, read-out: GI
CAKI-1 = assay: Antiproliferative activity against human CAKI-1 cells assessed as inhibition of cell growth at 10 uM measured after 48 hrs by SRB assay relative to control; conditions: CAKI-1, 48 h, read-out: GI
RXF 393 [6] = assay: Antiproliferative activity against human RXF393 cells assessed as inhibition of cell growth at 10 uM measured after 48 hrs by SRB assay relative to control; conditions: RXF 393, 48 h, read-out: GI
SN12C = assay: Antiproliferative activity against human SN12C cells assessed as inhibition of cell growth at 10 uM measured after 48 hrs by SRB assay relative to control; conditions: read-out: GI
CCRF-CEM = assay: Antiproliferative activity against human CCRF-CEM cells assessed as inhibition of cell growth measured after 48 hrs by SRB assay
HL-60(TB) [7] = assay: Antiproliferative activity against human HL-60(TB) cells assessed as inhibition of cell growth measured after 48 hrs by SRB assay; conditions: HL-60, 48 h
EKVX = assay: Antiproliferative activity against human EKVX cells assessed as inhibition of cell growth measured after 48 hrs by SRB assay
HOP-62 = assay: Antiproliferative activity against human HOP62 cells assessed as inhibition of cell growth measured after 48 hrs by SRB assay; conditions: HOP-62, 48 h
NCI-H460 [8] = assay: Antiproliferative activity against human NCI-H460 cells assessed as inhibition of cell growth measured after 48 hrs by SRB assay; conditions: NCI-H460, 48 h
SF-539 = assay: Antiproliferative activity against human SF539 cells assessed as inhibition of cell growth measured after 48 hrs by SRB assay; conditions: SF-539, 48 h
SNB-75 = assay: Antiproliferative activity against human SNB75 cells assessed as inhibition of cell growth measured after 48 hrs by SRB assay; conditions: SNB-75, 48 h
LOX IMVI = assay: Antiproliferative activity against human LOXIMVI cells assessed as inhibition of cell growth measured after 48 hrs by SRB assay
MDA-MB-435 = assay: Antiproliferative activity against human MDA-MB-435 cells assessed as inhibition of cell growth measured after 48 hrs by SRB assay; conditions: MDA-MB-435, 48 h
SK-MEL-2 = assay: Antiproliferative activity against human SK-MEL-2 cells assessed as inhibition of cell growth measured after 48 hrs by SRB assay; conditions: SK-MEL-2, 48 h
UACC-62 [9] = assay: Antiproliferative activity against human UACC62 cells assessed as inhibition of cell growth measured after 48 hrs by SRB assay; conditions: UACC-62, 48 h
IGROV-1 = assay: Antiproliferative activity against human IGROV1 cells assessed as inhibition of cell growth measured after 48 hrs by SRB assay; conditions: IGROV-1, 48 h
OVCAR-8 = assay: Antiproliferative activity against human OVCAR8 cells assessed as inhibition of cell growth measured after 48 hrs by SRB assay; conditions: OVCAR-8, 48 h
NCI/ADR-RES [10] = assay: Antiproliferative activity against human NCI/ADR-RES cells assessed as inhibition of cell growth measured after 48 hrs by SRB assay
A498 [11] = assay: Antiproliferative activity against human A498 cells assessed as inhibition of cell growth measured after 48 hrs by SRB assay; conditions: A498, 48 h
ACHN = assay: Antiproliferative activity against human ACHN cells assessed as inhibition of cell growth measured after 48 hrs by SRB assay
RXF 393 [12] = assay: Antiproliferative activity against human RXF393 cells assessed as inhibition of cell growth measured after 48 hrs by SRB assay; conditions: RXF 393, 48 h
MDA-MB-231 = assay: Antiproliferative activity against human MDA-MB-231 cells assessed as inhibition of cell growth measured after 48 hrs by SRB assay; conditions: MDA-MB-231, 48 h
T47D = assay: Antiproliferative activity against human T47D cells assessed as inhibition of cell growth measured after 48 hrs by SRB assay
MDA-MB-468 = assay: Antiproliferative activity against human MDA-MB-468 cells assessed as inhibition of cell growth measured after 48 hrs by SRB assay; conditions: MDA-MB-468, 48 h
U-251 = assay: Antiproliferative activity against human U251 cells assessed as inhibition of cell growth measured after 48 hrs by SRB assay; conditions: U-251, 48 h
SK-MEL-28 = assay: Antiproliferative activity against human SK-MEL-28 cells assessed as inhibition of cell growth measured after 48 hrs by SRB assay; conditions: SK-MEL-28, 48 h
OVCAR-5 = assay: Antiproliferative activity against human OVCAR5 cells assessed as inhibition of cell growth measured after 48 hrs by SRB assay; conditions: OVCAR-5, 48 h

| Compound | inhibition of growth at 10 µM (HL-60(TB) [1]) [%] | inhibition of growth at 10 µM (MOLT-4) [%] | inhibition of growth at 10 µM (NCI-H460 [2]) [%] | inhibition of growth at 10 µM (COLO 205) [%] | inhibition of growth at 10 µM (HT-29) [%] | inhibition of growth at 10 µM (KM12) [%] | inhibition of growth at 10 µM (SK-MEL-5) [%] | inhibition of growth at 10 µM (UACC-62 [3]) [%] | inhibition of growth at 10 µM (OVCAR-3) [%] | inhibition of growth at 10 µM (NCI/ADR-RES [4]) [%] | inhibition of growth at 10 µM (CAKI-1) [%] | inhibition of growth at 10 µM (RXF 393 [6]) [%] | inhibition of growth at 10 µM (SN12C) [%] | GI50 (CCRF-CEM) [nM] | GI50 (HL-60(TB) [7]) [nM] | GI50 (EKVX) [µM] | GI50 (HOP-62) [nM] | GI50 (NCI-H460 [8]) [nM] | GI50 (SF-539) [nM] | GI50 (SNB-75) [nM] | also measured |
| --- | --- | --- | --- | --- | --- | --- | --- | --- | --- | --- | --- | --- | --- | --- | --- | --- | --- | --- | --- | --- | --- |
| COc1ccc2nc3c(cc2c1)C(=O)CC(C(F)(F)F)C3 (stereo not drawn) | 115 | 84.7 | 89.5 | 90.9 | 89.1 | 88.4 | 68.6 | 60.2 | 94.7 | 81.1 | 63 | 102 | 57.9 | 238 | 325 | 4.19 | 3610 | 2610 | 1890 | 2160 | inhibition of growth at 10 µM (A498 [5]): 108%; GI50 (LOX IMVI): 3080 nM; GI50 (MDA-MB-435): 143 nM; GI50 (SK-MEL-2): 802 nM; GI50 (UACC-62 [9]): 697 nM; GI50 (IGROV-1): 769 nM; GI50 (OVCAR-8): 2040 nM; GI50 (NCI/ADR-RES [10]): 336 nM; GI50 (A498 [11]): 355 nM; GI50 (ACHN): 768 nM; GI50 (RXF 393 [12]): 562 nM; GI50 (MDA-MB-231): 3.98 µM; GI50 (T47D): 3.29 µM; GI50 (MDA-MB-468): 1870 nM |
| COc1ccc2nc3c(cc2c1)C(=O)CC(c1ccccc1)C3 (stereo not drawn) | 102 | 82.2 | 91.2 | 98.1 | 90 | 89.2 | 69.8 | 63.1 | 107 | 86.8 | 68.7 | 103 | 59.3 | 322 | 274 | 5.92 | 1960 | 1710 | 1150 | 572 | inhibition of growth at 10 µM (A498 [5]): 113%; GI50 (LOX IMVI): 887 nM; GI50 (MDA-MB-435): 137 nM; GI50 (SK-MEL-2): 777 nM; GI50 (UACC-62 [9]): 728 nM; GI50 (IGROV-1): 2310 nM; GI50 (OVCAR-8): 1060 nM; GI50 (NCI/ADR-RES [10]): 408 nM; GI50 (A498 [11]): 346 nM; GI50 (ACHN): 756 nM; GI50 (RXF 393 [12]): 440 nM; GI50 (MDA-MB-231): 3.42 µM; GI50 (T47D): 3.65 µM |
| O=C1CC(c2ccccc2)Cc2nc3c(Br)cc(Br)cc3cc21 (stereo not drawn) | 95.4 | 79.2 | 97.7 | 148 | 91.7 | 98 | 118 | 61.7 | 140 | 113 | 98.8 | 70 | 60.5 | 88.9 | 226 | 0.391 | 180 | 42.3 | 192 | 199 | GI50 (U-251): 421 nM; GI50 (LOX IMVI): 758 nM; GI50 (MDA-MB-435): 211 nM; GI50 (SK-MEL-2): 49.2 nM; GI50 (SK-MEL-28): 478 nM; GI50 (UACC-62 [9]): 338 nM; GI50 (IGROV-1): 125 nM; GI50 (OVCAR-5): 461 nM; GI50 (OVCAR-8): 507 nM; GI50 (NCI/ADR-RES [10]): 236 nM; GI50 (A498 [11]): 140 nM; GI50 (ACHN): 595 nM; GI50 (RXF 393 [12]): 91.6 nM; GI50 (MDA-MB-231): 0.402 µM; GI50 (T47D): 0.851 µM; GI50 (MDA-MB-468): 1280 nM |
